Earlier results in US12178851B2, “Methods for administering STING agonists” (GlaxoSmithKline Intellectual Property Development Limited, priority 2017, dated 2024).

Key:
CT26 syngeneic model [1] = conditions: 20 daily i.v. doses of 20 mg/kg, dosed 4 h after injection of the tumor cells
CT26 syngeneic model [2] = tested on: CT26 syngeneic model

In the case of `Nc1nc2c(ncn2[C@@H]2O[C@@H]3COP(=O)(O)O[C@H]4[C@@H](O)[C@H](n5cnc6c(N)ncnc65)O[C@@H]4COP(=O)(O)O[C@@H]2[C@@H]3O)c(=O)[nH]1` [2′3′-cGAMP], the “efficacy in CT26 model” value (CT26 syngeneic model [1]) is listed as “some efficacy”.
For `Cc1ccc2c(=O)c3cccc(CC(=O)O)c3oc2c1C` [DMXAA, 5,6-Dimethylxanthenone-4-Acetic Acid], the “maximally tolerated i.p. dose” value (CT26 syngeneic model [2]; mouse, in vivo, ip) is listed as ~99 µmol/kg, the “cytokine levels in tumor and blood” value (CT26 syngeneic model [2]; once at 500 ug/mouse i.p.) is listed as “high cytokine levels both in the tumor and the blood” and the tumor growth inhibition (CT26 syngeneic model [2]; once at 500 ug/mouse i.p., established tumors) is listed as “potently inhibits tumor growth, leading to cures in mice”.
